How the values were obtained:
[1] = Volume of distribution in female mouse at 1 mg/kg, iv by reverse phase chromatography; format: ADME, organism-based; settings: in vivo
[2] = AUC in Sprague-Dawley rat at 10 mg/kg, po by reverse phase chromatography; format: ADME, organism-based; settings: in vivo
[3] = Genotoxicity in CD-1(ICR)BR mouse assessed as effect on bone marrow cells at 2000 mg/kg, po by micronucleus assay; format: toxicity, organism-based; settings: in vivo
[4] = Toxicity in Sprague-Dawley rat assessed as diarrhea at 100 mg/kg, po administered as single dose and measured after 14 days; format: organism-based; settings: in vivo, 336 h, time 14 day

Question: Which Vd [1] does the source give for `C[C@@]1(O)[C@H](O)[C@@H](CO)O[C@H]1c1coc2c(N)ncnc12` here?
Answer: 22.4 L/kg

Question: What about the AUC [2] of the same compound?
Answer: 4980 ng·h/mL

Question: What about the Activity [3] of the same compound?
Answer: Toxic

Question: What about the Activity [4] of the same compound?
Answer: Non-toxic

— ChEMBL document CHEMBL6087385, “Synthesis and biological evaluation of Ribo 7-N/O/S pyrimidine 9-deaza C-nucleoside analogs as new antiviral agents for inhibiting HCV RNA-dependent RNA polymerases” (Eur J Med Chem, 2024)
